Values of other authors as cited in patent publication US5780243A, “Methods for the quantitative analysis of organic compounds” (Thaco Research, Ltd., priority 1996, dated 1998).

CNC1C(O)C(NC)C2OC3(O)C(=O)CC(C)OC3OC2C1O (stereo not shown) [spectinomycin, decahydro-4a,7,9-trihydroxy-2-methyl-6,8-bis(methylamino)-4H-pyrano[2,3-b][1,4]benzodioxin-4-one]
solubility in organic solvents: virtual insolubility
